“Also recorded” adds a separate entry of the source.
How the values were obtained:
healthy subjects [1] = test: Example 1: heart rate and blood pressure; assay type: in vivo, human
Source text: Heart rate, conjunctiva congestion, subjective ratings, and a battery of computerized cognitive tests were used to evaluate pharmacodynamics. FIG. 11a-b are plots of mean baseline adjusted heart rate for Groups I-III. FIG. 12a-c show plots of placebo corrected diastolic blood pressure. […] FIG. 14a-b present comparisons of Active versus Placebo alertness and a plot of change in self-rated alertness. FIG. 15a-b show comparisons of Active v. Placebo for calmness and a plot of change in self-rated calmness.
For Examples 1 and 2: Heart rate was obtained from the blood pressure recordings or using telemetry.
Absolute values of heart rate and conjunctive congestion scores were used to calculate changes from baseline.
For Example 1: All pharmacodynamic variables were evaluated using descriptive statistics for all study evaluations.

healthy subjects [2] = system: healthy subjects; design: species or system human; details: in vivo
healthy subjects [3] = test: Example 2: subjective drug rating and ARCI-49; assay type: in vivo, human
Source text: The data for Group I and Group II were pooled and submitted to a mixed effects general linear model analysis. Two sets of analyses were done. The first was for the pre-drug conditions. The fixed effect of day and the fixed effect of condition were non-significant for all of the five scale scores, indicating similarity of pre-drug baseline score. A second analysis compared condition, the first dosing day, the last dosing day, the four visits including pre-drug, and the subjects in the analysis of variance.
The subject responded to each of three questions on a scale of 0 to 100 with 0 meaning no effect/not at all and 100 meaning maximum/very much:
The ARCI is a true/false questionnaire developed to specifically measure the subjective effects of drugs which have diverse pharmacological actions. The […] (PCAG), morphine-benzedrine, and lysergic acid diethylamide subgroup scales were used to assess sedation, euphoria, and dysphoria. Questions from the marijuana subscale were also included.

healthy subjects [4] = test: Example 2: safety, adverse events; assay type: in vivo, human; details: for events reported among subjects treated with active drug: all six subjects; for events considered probably or possibly related to study drug: all six subjects on active drug
Protocol: (§1) Adverse events were recorded based on original descriptions from subject responses to queries. Complete medical histories and physical examinations were conducted. Vital signs were monitored, ECGs were recorded along with pulmonary function tests and laboratory examinations.
Treatment-emergent adverse events (TEAEs), defined as any event that begins or worsens after treatment with study medication, were summarized by MedDRA system organ class (SOC) for each treatment group. The number and percentage of subjects with TEAEs was tabulated for each treatment and with respect to maximum severity and relationship to study medication.

healthy subjects [5] = test: Example 2: 12-lead ECG and telemetric cardiac monitoring; assay type: in vivo, human; details: for heart rate, mean value (ECG) / heart rate, mean increase above baseline / heart rate, mean increase above pre-dose value on Day 1: Day 1, 20 minutes after dosing; for time for heart rate to return to baseline after dosing: Day 1
Protocol: as §1
Listings of values for each subject were presented with abnormal or out of range values for vital signs, laboratory assays, ECGs, pulmonary function tests, and physical examinations. Descriptive statistics (n, mean, standard deviation (SD), minimum, median, maximum) for all clinical laboratory safety parameters, ECGs, pulmonary function tests, and vital signs were provided. ECGs and physical examinations were to be summarized in shift tables to show changes from baseline between normal and abnormal findings.

`CCCCCc1cc(O)c2c(c1)OC(C)(C)[C@@H]1CCC(C)=C[C@@H]21` [delta-9-THC, delta-9-tetrahydrocannabinol] was tested, and the “effect on heart rate” value (healthy subjects [1]; 0.3 mg dose, Groups I-II) was “did not differ markedly from that observed with placebo”, the “duration of heart rate increase” value (healthy subjects [1]; 1.2 mg) was 5 min and the “increase in heart rate relative to placebo” value (healthy subjects [1]; 1.2 mg, 5 minutes after dosing) was “approximately 12 bpm”. The “duration of heart rate increase” value (healthy subjects [1]; 2.4 mg) was “about 15 minutes”, the “largest effect on heart rate, increase compared to placebo” value (healthy subjects [1]; 7.2 mg) was “about 46 bpm” and the “duration of heart rate increase” value (healthy subjects [1]; 9.6 mg) was “about 2.0 hours”. The “time of return of heart rate to normal after dosing” value (healthy subjects [1]; Group III (elderly, 3.6 mg)) was 5 min, the heart rate increase (healthy subjects [1]; Group III (elderly, 3.6 mg), at 2 minutes) was 10 bpm and the “placebo corrected diastolic and systolic blood pressure” value (healthy subjects [1]; across the dose levels investigated) was “no clear dose-relationship”. The “duration of effect on heart rate” value (healthy subjects [1]; after single dosing) was “approximately 2 hours”, the “time of maximum effect on heart rate” value (healthy subjects [1]; after single dosing) was 2 to 5 min and the “placebo corrected heart rate” value (healthy subjects [1]; between 0.17 and 5 hours post dose) was “dose related increase”. The Choice reaction time (healthy subjects [2]) was “Significant decrements”, the “Digit Vigilance” value (healthy subjects [2]) was “slight decrement; also recorded: more marked decrements; also recorded: marked decrement” and the “Digit Vigilance, primary analysis” value (healthy subjects [2]) was “failed to show significant dose-time interaction”. The Immediate word recall (healthy subjects [2]) was “No significant differences”, the “Numeric Working Memory Speed” value (healthy subjects [2]) was “significant decrements” and the “Numeric Working memory sensitivity index” value (healthy subjects [2]) was “No significant differences”. The “Spatial Working Memory Sensitivity Index” value (healthy subjects [2]) was “No significant differences”, the “Spatial Working Memory Speed” value (healthy subjects [2]) was “No significant differences” and the “delay of effects on VAS” value (healthy subjects [2]) was “up to two hours”. The “delay of effects on cognitive functioning” value (healthy subjects [2]) was “up to one hour”, the “delayed word recall, analysis” value (healthy subjects [2]) was “significant main effect of dose” and the “picture recognition sensitivity index” value (healthy subjects [2]) was “did not show any significant differences”. The picture recognition speed (healthy subjects [2]) was “No significant differences”, the word recognition speed (healthy subjects [2]) was “did not show any significant differences” and the “word sensitivity index (word recognition)” value (healthy subjects [2]) was “No significant differences”. For the same compound, the “'feel the drug' and 'liking' scores” value (healthy subjects [3]; 1.2 mg, Day 1) was “slightly larger than those who received placebo”, the “'disliking' scores” value (healthy subjects [3]; 1.2 mg, Day 12) was “approximately the same or slightly higher” and the “'feel the drug' and 'liking' scores” value (healthy subjects [3]; 1.2 mg, Day 12) was “diminished”. The “ARCI Morphine Benzedrine Group (MBG) scale” value (healthy subjects [3]; 3.6 mg, 1 hour post-dose) was “some MBG effect”, the “'feel the drug', 'liking' and 'disliking' scores versus placebo” value (healthy subjects [3]; 3.6 mg, Day 1) was “significantly larger” and the “subjective drug rating scores” value (healthy subjects [3]; 3.6 mg, Day 19) was “still much larger than the placebo scores”. The “ARCI Amphetamine Scale (AS)” value (healthy subjects [3]; Groups I and II pooled) was “no significant effects for condition”, the “ARCI Benzedrine Group scale, interaction terms” value (healthy subjects [3]; Groups I and II pooled) was “significant for the visit and the condition by visit interaction terms” and the “ARCI LSD scale” value (healthy subjects [3]; Groups I and II pooled) was “no significance for condition, day, visit, or any of the interaction terms”. The “ARCI PCAG scale, visit and condition times visit interaction” value (healthy subjects [3]; Groups I and II pooled, p less than 0.001) was “highly significant”, the subjects reporting cough (healthy subjects [4]; 1.2 mg, Group I, all six) was 100% and the “subjects with increased liver function tests (summary)” value (healthy subjects [4]; 3.6 mg for two weeks) was “three out of nine subjects”. For the same compound, the subjects reporting cough (healthy subjects [4]; 3.6 mg, Group II, five out of six) was 83.3%, the “subjects reporting euphoric mood” value (healthy subjects [4]; Group 1, one subject) was 16.7% and the “most frequently reported TEAEs” value (healthy subjects [4]; Group I (1.2 mg dose level)) was “cough and somnolence”. For the same compound, the “TEAEs Probable/Possible, E = number of adverse events” value (healthy subjects [4]; Group I Active (1.2 mg)) was 13, the “TEAEs Probable/Possible, N = number of subjects” value (healthy subjects [4]; Group I Active (1.2 mg)) was 6 and the “TEAEs Unlikely/Unrelated, E = number of adverse events” value (healthy subjects [4]; Group I Active (1.2 mg)) was 7. For the same compound, the “TEAEs Unlikely/Unrelated, N = number of subjects” value (healthy subjects [4]; Group I Active (1.2 mg)) was 3, the “Any related TEAE, n (x %) subjects” value (healthy subjects [4]; Group I, 1.2 mg) was 6 (100%) and the “Any related TEAE, number AEs” value (healthy subjects [4]; Group I, 1.2 mg) was 13. The “Subjects with at least one AE, n (x %)” value (healthy subjects [4]; Group I, 1.2 mg) was 6 (100%), the “Subjects with at least one AE, number AEs” value (healthy subjects [4]; Group I, 1.2 mg) was 20 and the “events reported among subjects treated with active drug” value (healthy subjects [4]; Group I) was 27 events. The “events considered probably or possibly related to study drug” value (healthy subjects [4]; Group I) was 13 events, the “most frequently reported TEAEs” value (healthy subjects [4]; Group II (3.6 mg dose level)) was “cough, headache, and euphoric mood” and the “TEAEs Probable/Possible, E = number of adverse events” value (healthy subjects [4]; Group II Active (3.6 mg)) was 17. The “TEAEs Probable/Possible, N = number of subjects” value (healthy subjects [4]; Group II Active (3.6 mg)) was 6, the “TEAEs Unlikely/Unrelated, E = number of adverse events” value (healthy subjects [4]; Group II Active (3.6 mg)) was 9 and the “TEAEs Unlikely/Unrelated, N = number of subjects” value (healthy subjects [4]; Group II Active (3.6 mg)) was 3. For the same compound, the “Any related TEAE, n (x %) subjects” value (healthy subjects [4]; Group II, 3.6 mg) was 6 (100%), the “Any related TEAE, number AEs” value (healthy subjects [4]; Group II, 3.6 mg) was 17 and the “Subjects with at least one AE, n (x %)” value (healthy subjects [4]; Group II, 3.6 mg) was 6 (100%). For the same compound, the “Subjects with at least one AE, number AEs” value (healthy subjects [4]; Group II, 3.6 mg) was 27, the “subjects with liver enzymes elevated at follow-up” value (healthy subjects [4]; Group II, 3.6 mg) was “three subjects” and the “events reported among subjects treated with active drug” value (healthy subjects [4]; Group II) was 19 events. The “events considered probably or possibly related to study drug” value (healthy subjects [4]; Group II) was 17 events, the “subjects reporting euphoric mood” value (healthy subjects [4]; Group III (so in the source), three subjects) was 50.0% and the “duration of intermittent cough” value (healthy subjects [4]; active treatment, Group I) was “between four and nine days”. The “duration of intermittent cough” value (healthy subjects [4]; active treatment, Group II) was “between six and 18 days”, the subjects reporting somnolence (healthy subjects [4]; active treatment, two subjects in each group) was 33.3% and the “overall safety and tolerability” value (healthy subjects [4]; single and multiple dosing with 1.2 and 3.6 mg, pulmonary inhaled) was “safe and well-tolerated”. For the same compound, the “vital signs, ECG, physical examination, telemetric monitoring and pulmonary function tests” value (healthy subjects [4]; summary) was “No dose-related trends or clinically significant changes”, the “deaths or serious adverse events” value (healthy subjects [4]; whole study) was “No deaths or serious adverse events” and the “intensity of TEAEs” value (healthy subjects [4]; whole study) was “mild intensity”. For the same compound, the “serious or severe AEs, AEs leading to premature termination” value (healthy subjects [4]; whole study) was “no serious or severe AEs”, the “heart rate, mean value (ECG)” value (healthy subjects [5]; Group I (1.2 mg)) was 67 bpm and the “time for heart rate to return to baseline after dosing” value (healthy subjects [5]; Group I) was at most 40 min. The “heart rate, mean increase above baseline” value (healthy subjects [5]; Group I) was 4 bpm, the “heart rate, mean increase above pre-dose value on Day 1” value (healthy subjects [5]; Group I) was 13 bpm and the “heart rate, mean value (ECG)” value (healthy subjects [5]; Group II (3.6 mg)) was 81 bpm. For the same compound, the “time for heart rate to return to baseline after dosing” value (healthy subjects [5]; Group II) was at most 240 min, the “heart rate, mean increase above baseline” value (healthy subjects [5]; Group II) was 14 bpm and the “heart rate, mean increase above pre-dose value on Day 1” value (healthy subjects [5]; Group II) was 21 bpm. The “time of return of QTc towards baseline after dosing” value (healthy subjects [5]; Group II, first dose) was at most 1 h, the “Individual QTc values” (healthy subjects [5]; each assessment time point) was “less than 450 msec” and the QTc individual values (healthy subjects [5]; each assessment time point) was under 422 ms. For the same compound, the QTc mean values (healthy subjects [5]; each assessment time point) was under 395 ms, the “QTc-intervals using Fridericia's correction” value (healthy subjects [5]; in vivo) was “no apparent effect” and the telemetric cardiac monitoring (healthy subjects [5]; in vivo) was “no clinically significant abnormalities”. For the same compound, the ECG parameters (healthy subjects [5]; single and multiple inhalational dosing) was “no clinically significant abnormalities or trends”.

— US20070020193A1, “Dronabinol compositions and methods for using same” (priority 2005, published 2007)
